Data taken from patent US7468391B2, “Methods for treating retinoid responsive disorders using selective inhibitors of CYP26A and CYP26B” (Allergan, Inc., priority 2003, dated 2008).

Columns and labels:
CYP26A (P450RAI-1) = target: T1, CYP26A (P450RAI-1) (Homo sapiens, UniProt O43174); experiment: Cell-based inhibition of RA metabolism in CYP26A stably transfected HeLa cells; settings: stably transfected HeLa cells, [3H]-RA, 3 hours at 37° C.; read-out: P450RAI-1 Whole cell IC50
T1 construct: expressed in transfected cells; host or cells: HeLa
T1 sequence (O43174 1-497): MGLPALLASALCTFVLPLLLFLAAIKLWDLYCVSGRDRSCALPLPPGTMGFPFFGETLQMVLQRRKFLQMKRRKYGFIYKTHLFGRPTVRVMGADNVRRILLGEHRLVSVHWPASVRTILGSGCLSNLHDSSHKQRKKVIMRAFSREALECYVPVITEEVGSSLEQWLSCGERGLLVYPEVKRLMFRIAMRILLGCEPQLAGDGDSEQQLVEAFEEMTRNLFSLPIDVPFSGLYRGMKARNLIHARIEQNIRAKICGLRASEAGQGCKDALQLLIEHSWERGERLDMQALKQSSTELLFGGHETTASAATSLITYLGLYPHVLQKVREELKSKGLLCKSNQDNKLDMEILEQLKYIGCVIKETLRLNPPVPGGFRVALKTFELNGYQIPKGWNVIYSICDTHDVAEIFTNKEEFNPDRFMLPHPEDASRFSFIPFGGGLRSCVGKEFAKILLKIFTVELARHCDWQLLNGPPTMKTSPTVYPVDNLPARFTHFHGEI
Experimental: (§1) In brief, CYP26A or CYP26B can be stably transfected into HeLa cells. Exponentially growing cells are harvested by incubating in trypsin. Cells are then washed and plated in a 48-well plate at 5×10^5 cells in 0.2 ml MEM medium containing 10% FBS and 0.05 μCi [^3H]-RA in the presence or absence of increasing concentrations of the test compounds. The compounds are diluted in 100% DMSO and then added in triplicate wells at either 10, 1 or 0.1 μM final concentration. As a positive control for RA metabolism inhibition, cells are also incubated with ketoconazole at 100, 10 and 1 μM. Cells are incubated for 3 hours at 37 degrees C. The retinoids are then extracted using the procedure of Bligh et al., Canadian Journal of Biochemistry 37: 911-917 (1959), modified by using methylenechloride instead of chloroform. This publication by Bligh et al., is specifically incorporated herein by reference. The water soluble radioactivity is quantified using a β scintillation counter, and IC50 values are determined.
(§2) CYP26A and CYP26B stably transfected HeLa cells were maintained in 100 mm tissue culture dishes in MEM medium containing 10% FBS and 100 μg/ml hygromycin.
(§3) Exponentially growing cells were harvested by incubating in trypsin. Cells were then washed with 1×PBS and plated in a 48-well plate at 5×10^5 cells in 0.2 ml MEM medium containing 10% FBS and 0.05 μCi [^3H]-RA in the presence or absence of increasing concentrations of the test compounds. The compounds were diluted in 100% DMSO and then added to triplicate wells at final concentrations of 10, 1 or 0.1 μM. As a positive control for RA metabolism inhibition, cells were also incubated with ketoconazole at 100, 10 and 1 μM. Cells were incubated for 3 hours at 37° C. The retinoids were then extracted using a modified Bligh and Dyer procedure (Bligh and Dyer, supra (1959)), in which methylene-chloride, as opposed to chloroform, was used, and the aqueous soluble radioactivity quantified using a β-scintillation counter. ID50 values represent the concentration of inhibitor required to inhibit RA metabolism by 50 percent and were derived manually from log-transformed data.

CYP26B (P450RAI-2) = target: T2, CYP26B (P450RAI-2) (Homo sapiens, UniProt Q9NR63); experiment: Cell-based inhibition of RA metabolism in CYP26B stably transfected HeLa cells; settings: stably transfected HeLa cells, [3H]-RA, 3 hours at 37° C.; read-out: P450RAI-2 Whole cell IC50
T2 construct: expressed in transfected cells; host or cells: HeLa
T2 sequence (Q9NR63 1-512): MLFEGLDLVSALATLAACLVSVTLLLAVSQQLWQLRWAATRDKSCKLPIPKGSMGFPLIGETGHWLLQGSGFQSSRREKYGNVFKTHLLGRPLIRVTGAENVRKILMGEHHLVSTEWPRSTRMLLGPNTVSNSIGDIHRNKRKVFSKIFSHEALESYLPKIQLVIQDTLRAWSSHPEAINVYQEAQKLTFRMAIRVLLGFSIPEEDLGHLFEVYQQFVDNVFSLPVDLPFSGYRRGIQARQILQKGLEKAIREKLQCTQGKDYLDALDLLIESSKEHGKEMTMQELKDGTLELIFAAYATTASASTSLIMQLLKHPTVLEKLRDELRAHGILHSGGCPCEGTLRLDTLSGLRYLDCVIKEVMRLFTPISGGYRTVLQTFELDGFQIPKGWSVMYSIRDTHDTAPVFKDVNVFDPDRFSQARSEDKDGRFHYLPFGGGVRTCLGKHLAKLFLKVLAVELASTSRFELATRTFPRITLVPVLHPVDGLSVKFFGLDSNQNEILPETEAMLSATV
Experimental: as §1, §2, §3

RAR β [1] = target: T3, RAR β (Homo sapiens, UniProt P10826); experiment: RAR β EC50/(efficacy); assay type: cell-based; settings: value in brackets of cell EC50/(EFFICACY)/Kd
T3 sequence (P10826 1-455): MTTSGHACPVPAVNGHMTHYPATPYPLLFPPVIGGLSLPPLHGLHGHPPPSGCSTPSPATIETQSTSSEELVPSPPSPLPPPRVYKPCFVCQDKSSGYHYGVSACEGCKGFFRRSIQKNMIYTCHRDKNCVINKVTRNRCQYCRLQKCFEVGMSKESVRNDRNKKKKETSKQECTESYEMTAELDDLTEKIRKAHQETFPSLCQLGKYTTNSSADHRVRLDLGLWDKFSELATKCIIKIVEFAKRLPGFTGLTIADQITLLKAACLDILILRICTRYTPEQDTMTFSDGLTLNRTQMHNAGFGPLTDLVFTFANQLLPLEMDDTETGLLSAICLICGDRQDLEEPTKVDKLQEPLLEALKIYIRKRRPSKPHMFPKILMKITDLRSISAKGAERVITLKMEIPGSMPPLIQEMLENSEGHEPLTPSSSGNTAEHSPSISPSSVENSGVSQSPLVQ

RAR α = target: T4, RAR α (Homo sapiens, UniProt P10276); experiment: RAR α Kd; assay type: binding; settings: last item of cell EC50/(EFFICACY)/Kd
T4 sequence (P10276 1-462): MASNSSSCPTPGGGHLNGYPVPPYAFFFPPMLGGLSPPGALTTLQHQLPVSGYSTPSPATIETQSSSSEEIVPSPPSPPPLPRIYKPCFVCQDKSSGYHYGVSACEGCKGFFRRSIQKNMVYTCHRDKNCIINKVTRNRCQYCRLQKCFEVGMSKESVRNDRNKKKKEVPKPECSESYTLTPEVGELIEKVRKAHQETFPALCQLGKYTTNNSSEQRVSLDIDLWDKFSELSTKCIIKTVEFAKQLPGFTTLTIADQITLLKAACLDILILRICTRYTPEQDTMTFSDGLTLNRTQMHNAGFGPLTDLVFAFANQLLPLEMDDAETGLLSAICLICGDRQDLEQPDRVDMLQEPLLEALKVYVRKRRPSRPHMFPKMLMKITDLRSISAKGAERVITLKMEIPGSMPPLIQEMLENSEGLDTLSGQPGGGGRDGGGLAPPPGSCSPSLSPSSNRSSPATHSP

RAR β [2] = target: T3, RAR β; experiment: RAR β Kd; assay type: binding; settings: last item of cell EC50/(EFFICACY)/Kd
RAR γ = target: T5, RAR γ (Homo sapiens, UniProt P13631); experiment: RAR γ Kd; assay type: binding; settings: last item of cell EC50/(EFFICACY)/Kd
T5 sequence (P13631 1-454): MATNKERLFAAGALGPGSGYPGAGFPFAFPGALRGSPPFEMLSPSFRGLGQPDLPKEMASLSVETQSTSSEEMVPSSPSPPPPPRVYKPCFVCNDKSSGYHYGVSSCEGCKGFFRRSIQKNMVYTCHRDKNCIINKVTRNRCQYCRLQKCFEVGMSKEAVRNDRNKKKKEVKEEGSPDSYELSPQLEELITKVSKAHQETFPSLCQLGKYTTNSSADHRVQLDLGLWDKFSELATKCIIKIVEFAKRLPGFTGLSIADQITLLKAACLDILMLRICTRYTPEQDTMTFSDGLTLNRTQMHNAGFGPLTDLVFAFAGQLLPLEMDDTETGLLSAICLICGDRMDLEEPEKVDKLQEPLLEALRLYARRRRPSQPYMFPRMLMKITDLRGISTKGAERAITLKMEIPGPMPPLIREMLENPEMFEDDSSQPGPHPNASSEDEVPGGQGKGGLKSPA

| SMILES | IC50 (CYP26A (P450RAI-1)) | IC50 (CYP26B (P450RAI-2)) | RAR β (EFFICACY) (RAR β [1]) | Kd (RAR α) | Kd (RAR β [2]) | Kd (RAR γ) |
| --- | --- | --- | --- | --- | --- | --- |
| CC(C(=O)O)c1ccc(C#Cc2ccc3c(c2)C(C)(C)CCC3N(C)C2CC2)cc1 (centres unmarked) [Compound 51, 2-{4-[5-(Cyclopropyl-methyl-amino)-8,8-dimethyl-5,6,7,8-tetrahydro-naphthalen-2-ylethynyl]-phenyl}-propionic acid] | 0.2 µM | > 10 µM | 5 | > 10 µM | > 10 µM | > 10 µM |
| COc1cc(C#CC2=CCC(/C=C(\C)C(=O)O)C=C2)cc2c1C(N(C)C1CC1)CCC2(C)C (centres unmarked) [Compound 30, (E)-3-{4-[5-(Cyclopropyl-methyl-amino)-4-methoxy-8,8-dimethyl-5,6,7,8-tetrahydro-naphthalen-2-ylethynyl]-cyclohexa-2,4-dienyl}-2-methyl-acrylic acid] | 0.18 µM | > 10 µM | 15 | > 10 µM | > 10 µM | > 10 µM |
| CCOC(=O)C1=C(C)CC(C)(C)c2cc(C#Cc3ccc(CC(=O)O)c(F)c3)ccc21 [Compound 59, 6-(4-Carboxymethyl-3-fluoro-phenylethynyl)-2,4,4-trimethyl-3,4-dihydro-naphthalene-1-carboxylic acid ethyl ester] | 1.2 µM | > 10 µM | 35 | > 10 µM | 2.86 µM | > 10 µM |
| CCc1cc(C#Cc2ccc(C(C)(C)C(=O)O)cc2)cc2c1C(N(C)C1CC1)CCC2(C)C (centres unmarked) [Compound 54, 2-{4-[5-(Cyclopropyl-methyl-amino)-4-ethyl-8,8-dimethyl-5,6,7,8-tetrahydro-naphthalen-2-ylethynyl]-phenyl}-2-methyl-propionic acid] | 0.2 µM | > 10 µM |  | 1.81 µM | 5.09 µM | > 10 µM |
| Cc1cc2c(cc1C#Cc1ccc(C(C)(C)C(=O)O)cc1)C(C)(C)CCC2N(C)C1CC1 (centres unmarked) [Compound 53, 2-{4-[5-(Cyclopropyl-methyl-amino)-3,8,8-trimethyl-5,6,7,8-tetrahydro-naphthalen-2-ylethynyl]-phenyl}-2-methyl-propionic acid] | 0.5 µM | 5 µM |  | > 10 µM | 3.91 µM | > 10 µM |
| COc1cc(C#Cc2ccc(C(C)C(=O)O)cc2)cc2c1C(N(C)C1CC1)CCC2(C)C (centres unmarked) [Compound 27, 2-{4-[5-(Cyclopropyl-methyl-amino)-4-methoxy-8,8-dimethyl-5,6,7,8-tetrahydro-naphthalen-2-ylethynyl]-phenyl}-propionic acid] | 0.028 µM | > 10 µM |  | 0.118 µM | 1.27 µM | > 10 µM |
| CN(Cc1cc(C#Cc2ccc(CC(=O)O)c(F)c2)cc2c1OC(C)(C)CC2(C)C)C1CC1 [Compound 7, (4-{8-[(Cyclopropyl-methyl-amino)-methyl]-2,2,4,4-tetramethyl-chroman-6-ylethynyl}-2-fluoro-phenyl)-acetic acid] | 0.04 µM | 2 µM |  | > 10 µM | > 10 µM | > 10 µM |
| C#Cc1cc(C#Cc2ccc(CC(=O)OCOC(C)=O)c(F)c2)cc(C(=O)OC(C)C)c1 [Compound 62, 3-(4-Acetoxymethoxycarbonylmethyl-3-fluoro-phenylethynyl)-5-ethynyl-benzoic acid isopropyl ester] | 0.4 µM | 6.1 µM |  | > 10 µM | > 10 µM | > 10 µM |
| CCOC(=O)C1=CCC(C)(C)c2cc(C#Cc3ccc(CC(=O)O)c(F)c3)c(C)cc21 [Compound 56, 6-(4-Carboxymethyl-3-fluoro-phenylethynyl)-4,4,7-trimethyl-3,4-dihydro-naphthalene-1-carboxylic acid ethyl ester] | 0.5 µM |  | 30 | > 10 µM | > 10 µM | > 10 µM |
| CC1(C)CC(C)(C)c2cc(C#Cc3ccc(C(C)(C)C(=O)O)cc3)cc(O)c2O1 [Compound 12, 2-[4-(8-Hydroxy-2,2,4,4-tetramethyl-chroman-6-ylethynyl)-phenyl]-2-methyl-propionic acid] | 0.16 µM | > 10 µM |  | > 10 µM | > 10 µM | > 10 µM |
